Measured values reported in ChEMBL document CHEMBL4706696, “3-Functionalised benzenesulphonamide based 1,3,4-oxadiazoles as selective carbonic anhydrase XIII inhibitors: Design, synthesis and biological evaluation” (Bioorg Med Chem Lett, 2021).
pKi: −log10 of the molar value.

Columns and labels:
Carbonic anhydrase 9 = Carbonic anhydrase 9 (Homo sapiens, UniProt Q16790); experiment: Inhibition of recombinant human carbonic anhydrase 9 by stopped flow CO2 hydrase assay
Carbonic anhydrase 2 = Carbonic anhydrase 2 (Homo sapiens, UniProt P00918); experiment: Inhibition of recombinant human carbonic anhydrase 2 by stopped flow CO2 hydrase assay
Carbonic anhydrase 1 = Carbonic anhydrase 1 (Homo sapiens, UniProt P00915); experiment: Inhibition of recombinant human carbonic anhydrase 1 by stopped flow CO2 hydrase assay
Sequence of Carbonic anhydrase 1 (P00915 whole entry): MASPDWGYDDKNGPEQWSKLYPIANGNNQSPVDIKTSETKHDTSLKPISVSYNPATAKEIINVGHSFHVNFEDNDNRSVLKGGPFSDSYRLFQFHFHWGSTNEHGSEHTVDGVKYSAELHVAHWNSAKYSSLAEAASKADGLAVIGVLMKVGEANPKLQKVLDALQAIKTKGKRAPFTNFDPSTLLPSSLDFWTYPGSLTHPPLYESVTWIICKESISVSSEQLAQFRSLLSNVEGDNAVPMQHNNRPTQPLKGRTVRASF

Carbonic anhydrase 13 = Carbonic anhydrase 13 (Homo sapiens, UniProt Q8N1Q1); experiment: Inhibition of recombinant human carbonic anhydrase 13 by stopped flow CO2 hydrase assay
Sequence of Carbonic anhydrase 13 (Q8N1Q1 whole entry): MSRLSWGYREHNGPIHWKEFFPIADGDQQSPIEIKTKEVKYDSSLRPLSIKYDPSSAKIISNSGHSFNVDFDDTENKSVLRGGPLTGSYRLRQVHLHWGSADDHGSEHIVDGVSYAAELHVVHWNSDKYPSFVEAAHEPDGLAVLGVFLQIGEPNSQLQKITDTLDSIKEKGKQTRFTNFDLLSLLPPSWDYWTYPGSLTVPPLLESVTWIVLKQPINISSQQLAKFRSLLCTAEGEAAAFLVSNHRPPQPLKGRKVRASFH

Compound	pKi (Carbonic anhydrase 9)	pKi (Carbonic anhydrase 2)	pKi (Carbonic anhydrase 1)	pKi (Carbonic anhydrase 13)
COc1ccc(-c2nnc(-c3cccc(S(N)(=O)=O)c3)o2)c(OC)c1	7.09			
COc1ccc(OC)c(-c2nnc(-c3cccc(S(N)(=O)=O)c3)o2)c1	7.11			
Cc1ccc(-c2nnc(-c3ccc(Cl)cc3Cl)o2)cc1S(N)(=O)=O	< 5.00	< 5.00	< 5.00	< 5.00
COc1ccc(-c2nnc(-c3cccc([N+](=O)[O-])c3)o2)cc1S(N)(=O)=O	< 5.00	< 5.00	< 5.00	< 5.00
N#Cc1ccc(-c2nnc(-c3cccc(S(N)(=O)=O)c3)o2)cc1	7.12			
Cc1ccc(-c2nnc(-c3ccccc3)o2)cc1S(N)(=O)=O	< 5.00	< 5.00	< 5.00	< 5.00
NS(=O)(=O)c1cccc(-c2nnc(-c3ccccc3)o2)c1	6.97			
COc1ccc(-c2nnc(-c3ccc(OC)c(S(N)(=O)=O)c3)o2)c(OC)c1	< 5.00	< 5.00	< 5.00	< 5.00
COc1ccc(-c2nnc(-c3ccccc3)o2)cc1S(N)(=O)=O	< 5.00	< 5.00	< 5.00	< 5.00

The remaining lines, values ahead:

pKi (Carbonic anhydrase 9)	pKi (Carbonic anhydrase 2)	pKi (Carbonic anhydrase 1)	pKi (Carbonic anhydrase 13)	Compound
< 5.00	< 5.00	< 5.00	< 5.00	COc1ccc(-c2nnc(-c3ccc(C)c(S(N)(=O)=O)c3)o2)c(OC)c1
< 5.00	< 5.00	< 5.00	< 5.00	Cc1ccc(-c2nnc(-c3ccc(C#N)cc3)o2)cc1S(N)(=O)=O
7.12				NS(=O)(=O)c1cccc(-c2nnc(-c3ccc(Cl)cc3Cl)o2)c1
7.07				NS(=O)(=O)c1cccc(-c2nnc(-c3cccs3)o2)c1
7.26				NS(=O)(=O)c1cccc(-c2nnc(-c3ccc(Cl)cc3)o2)c1
7.36				NS(=O)(=O)c1cccc(-c2nnc(-c3cccc([N+](=O)[O-])c3)o2)c1
< 5.00	< 5.00	< 5.00	< 5.00	Cc1ccc(-c2nnc(-c3cccc([N+](=O)[O-])c3)o2)cc1S(N)(=O)=O
7.24				NS(=O)(=O)c1cccc(-c2nnc(-c3ccc([N+](=O)[O-])cc3)o2)c1
< 5.00	< 5.00	< 5.00	< 5.00	Cc1ccc(-c2nnc(-c3ccc(Cl)cc3)o2)cc1S(N)(=O)=O
7.17				COc1cc(-c2nnc(-c3cccc(S(N)(=O)=O)c3)o2)cc(OC)c1OC
